Test results reported in ChEMBL document CHEMBL2417541, “Aromatic glucosides from the seeds of Prunus davidiana” (J Nat Prod, 2013).

Experiments:
HCT-8 = assay: Cytotoxicity against human HCT8 cells; type: cell-based
Bel-7402 = assay: Cytotoxicity against human Bel7402 cells; type: cell-based
A549 = assay: Cytotoxicity against human A549 cells; type: cell-based
Liver microsomes [1] = assay: Antioxidant activity in rat liver microsomes assessed as inhibition of Fe2+-cysteine-induced lipid peroxidation measured malondialdehyde level at 10^-4 M/L incubated for 15 mins prior to FeSO4 addition measured after 15 mins by TBA method relative to control; type: functional; conditions: Microsome
BGC-823 = assay: Cytotoxicity against human BGC823 cells; type: cell-based
Liver microsomes [2] = assay: Antioxidant activity in rat liver microsomes assessed as inhibition of Fe2+-cysteine-induced lipid peroxidation measured malondialdehyde level at 10^-6 M/L incubated for 15 mins prior to FeSO4 addition measured after 15 mins by TBA method relative to control; type: functional; conditions: Microsome
A2780 = assay: Cytotoxicity against human A2780 cells; type: cell-based
Liver microsomes [3] = assay: Antioxidant activity in rat liver microsomes assessed as inhibition of Fe2+-cysteine-induced lipid peroxidation measured malondialdehyde level at 10^-5 M/L incubated for 15 mins prior to FeSO4 addition measured after 15 mins by TBA method relative to control; type: functional; conditions: Microsome

Row | SMILES | IC50 (HCT-8) [µM] | IC50 (Bel-7402) [µM] | IC50 (A549) [µM] | inhibition (Liver microsomes [1]) [%] | IC50 (BGC-823) [µM] | inhibition (Liver microsomes [2]) [%] | IC50 (A2780) [µM] | inhibition (Liver microsomes [3]) [%]
1 | N#C[C@H](O[C@@H]1O[C@H](CO[C@@H]2O[C@H](COC(=O)c3cccnc3)[C@@H](O)[C@H](O)[C@H]2O)[C@@H](O)[C@H](O)[C@H]1O)c1ccccc1 | > 10 | > 10 | > 10 | 88 | > 10 | 56 | > 10 | 67
2 | O=C(OC[C@H]1O[C@@H](OC[C@H]2O[C@@H](OCc3ccccc3)[C@H](O)[C@@H](O)[C@@H]2O)[C@H](O)[C@@H](O)[C@@H]1O)c1ccccc1 | > 10 | > 10 | > 10 | 55 | > 10 | 59 | > 10 | 50
3 | CCOC(=O)[C@H](O[C@@H]1O[C@H](CO[C@@H]2O[C@H](CO)[C@@H](O)[C@H](O)[C@H]2O)[C@@H](O)[C@H](O)[C@H]1O)c1ccccc1 | > 10 | > 10 | > 10 | 51 | > 10 | 56 | > 10 | 51
4 | O=C(OC[C@H]1O[C@@H](OC[C@H]2O[C@@H](OC(=O)c3ccccc3)[C@H](O)[C@@H](O)[C@@H]2O)[C@H](O)[C@@H](O)[C@@H]1O)c1ccccc1 | > 10 | > 10 | > 10 | 56 | > 10 | 56 | > 10 | 66
5 | O=C(OC[C@H]1O[C@@H](OC[C@H](O)[C@@H](O)c2ccc(O)cc2)[C@H](O)[C@@H](O)[C@@H]1O)c1ccccc1 | > 10 | > 10 | > 10 | 88 | > 10 | 57 | > 10 | 64
6 | COc1cc(CO)ccc1O[C@@H]1O[C@H](COC(=O)c2ccccc2)[C@@H](O)[C@H](O)[C@H]1O | > 10 | > 10 | > 10 | 51 | > 10 | 41 | > 10 | 42
7 | O=C(OC[C@H]1O[C@@H](O[C@@H](C(=O)O)c2ccccc2)[C@H](O)[C@@H](O)[C@@H]1O)c1ccccc1 | > 10 | > 10 | > 10 | 67 | > 10 | 53 | > 10 | 60
